The results in this text go back to ChEMBL document CHEMBL3286253, “Design, synthesis, and structure-activity relationship studies of novel thioether pleuromutilin derivatives as potent antibacterial agents” (J Med Chem, 2014).

Converted amounts (≈) assume the structure as drawn.

The test system of data set [1] is Staphylococcus epidermidis. Briefly: Antibacterial activity against methicillin-sensitive Staphylococcus epidermidis after 16 hrs by agar dilution method. Format: functional.
The test system of data set [2] is Streptococcus pneumoniae. Kind of data set: Antibacterial activity against penicillin-resistant Streptococcus pneumoniae after 16 hrs by agar dilution method. Format: functional. On the technique in general: In agar dilution, organisms are placed on agar that contains the substance at set levels.
Data set [3] concerns the target Cytochrome P450 2C9 (Homo sapiens, UniProt P11712). Kind of data set: Inhibition of CYP2C9 in human liver microsomes using tolbutamide as substrate after 15 mins by LC/MS/MS analysis. A general note: Liver microsomes are vesicles of endoplasmic reticulum, rich in cytochrome P450 enzymes.
In data set [4] the test system is Staphylococcus aureus. Kind of data set: Antibacterial activity against methicillin-sensitive Staphylococcus aureus after 16 hrs by agar dilution method. It counts as functional.
Data set [5] concerns the target Cytochrome P450 2C19 (Homo sapiens, UniProt P33261). Briefly: Inhibition of CYP2C19 in human liver microsomes using mephenytoin as substrate after 15 mins by LC/MS/MS analysis.
For data set [6], the target named is T1, Cytochrome P450 3A4 (Homo sapiens, UniProt P08684). Briefly: Inhibition of CYP3A4 in human liver microsomes using midazolam as substrate after 15 mins by LC/MS/MS analysis.
T1 sequence (P08684 whole entry): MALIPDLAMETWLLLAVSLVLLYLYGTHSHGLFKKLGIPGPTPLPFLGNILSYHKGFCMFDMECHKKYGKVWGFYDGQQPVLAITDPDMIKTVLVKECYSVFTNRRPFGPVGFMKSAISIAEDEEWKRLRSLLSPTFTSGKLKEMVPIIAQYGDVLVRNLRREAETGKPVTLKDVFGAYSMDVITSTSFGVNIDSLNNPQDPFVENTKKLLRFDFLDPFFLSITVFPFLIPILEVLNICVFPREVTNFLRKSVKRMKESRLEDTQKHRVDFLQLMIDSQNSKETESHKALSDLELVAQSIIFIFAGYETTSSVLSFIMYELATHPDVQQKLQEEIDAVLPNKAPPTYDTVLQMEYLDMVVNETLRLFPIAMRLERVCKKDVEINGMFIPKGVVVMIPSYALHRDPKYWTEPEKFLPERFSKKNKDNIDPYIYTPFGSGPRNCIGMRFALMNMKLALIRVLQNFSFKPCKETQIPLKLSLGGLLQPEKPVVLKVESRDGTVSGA
Data set [7] has as its system Staphylococcus aureus. Kind of data set: Antibacterial activity against Staphylococcus aureus […] after 16 hrs by agar dilution method. Format: functional.
Data set [8] concerns the target Cytochrome P450 2D6 (Homo sapiens, UniProt P10635). Kind of data set: Inhibition of CYP2D6 in human liver microsomes using dextromethorphan as substrate after 15 mins by LC/MS/MS analysis.
The target in data set [9] is T2, Cytochrome P450 1A2 (Homo sapiens, UniProt P05177).
T2 sequence (P05177 whole entry): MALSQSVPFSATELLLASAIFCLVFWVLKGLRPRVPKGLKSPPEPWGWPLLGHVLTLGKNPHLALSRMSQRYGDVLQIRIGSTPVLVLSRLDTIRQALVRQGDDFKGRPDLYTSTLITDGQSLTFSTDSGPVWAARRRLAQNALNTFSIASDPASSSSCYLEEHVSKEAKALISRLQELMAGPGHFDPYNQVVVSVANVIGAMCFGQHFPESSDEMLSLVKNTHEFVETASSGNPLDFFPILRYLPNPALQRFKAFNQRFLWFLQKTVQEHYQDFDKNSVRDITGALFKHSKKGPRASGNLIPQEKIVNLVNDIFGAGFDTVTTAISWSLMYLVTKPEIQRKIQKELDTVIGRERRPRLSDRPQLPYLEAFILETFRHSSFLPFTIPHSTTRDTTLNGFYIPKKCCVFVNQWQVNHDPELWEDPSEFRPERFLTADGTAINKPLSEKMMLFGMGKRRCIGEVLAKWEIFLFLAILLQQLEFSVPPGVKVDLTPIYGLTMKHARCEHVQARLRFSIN
Briefly: Inhibition of CYP1A2 in human liver microsomes using phenacetin as substrate after 15 mins by LC/MS/MS analysis.

The test system of data set [10] is Staphylococcus epidermidis. Briefly: Antibacterial activity against methicillin-resistant Staphylococcus epidermidis after 16 hrs by agar dilution method. It counts as functional.
Data set [11] deals with T1, Cytochrome P450 3A4. Kind of data set: Inhibition of CYP3A4 in human liver microsomes using testosterone as substrate after 15 mins by LC/MS/MS analysis.
Data set [12] has as its system Staphylococcus aureus. Kind of data set: Antibacterial activity against methicillin-resistant Staphylococcus aureus after 16 hrs by agar dilution method. Format: functional.
A short description of data set [13]: AUC (0 to t) in Sprague-Dawley rat at 2 mg/kg, iv administered as cassette dosing. Format: ADME, organism-based. Also on record: dose 2 mg/kg, route intravenous. To be noted: plasma.
The nature of data set [14]: Mean residence time in Sprague-Dawley rat at 2 mg/kg, iv administered as cassette dosing. Format: ADME, organism-based. More on the design: dose 2 mg/kg, route intravenous. The conditions noted are these: in vivo.
Data set [15] in a line: Volume of distribution at steady state in Sprague-Dawley rat at 2 mg/kg, iv administered as cassette dosing. Also on record: dose 2 mg/kg, route intravenous. It counts as ADME, organism-based. The conditions noted are these: in vivo, read-out: Vdss.
Data set [16] can be described thus: Clearance in Sprague-Dawley rat at 2 mg/kg, iv administered as cassette dosing. It counts as ADME, organism-based. Also on record: dose 2 mg/kg, route intravenous. To be noted: in vivo.
A short description of data set [17]: Elimination half life in Sprague-Dawley rat at 2 mg/kg, iv administered as cassette dosing. Format: ADME, organism-based. More on the design: dose 2 mg/kg, route intravenous. To be noted: in vivo, read-out: beta t1/2 (converted).
Data set [18] concerns Staphylococcus aureus. Briefly: Antibacterial activity against of methicillin-sensitive Staphylococcus aureus ATCC 19636 infected in iv dosed mouse assessed as host survival administered 1 hr after infection measured after 48 hrs. The conditions noted are these: ATCC 19636, iv. Format: functional.
Data set [19] deals with Staphylococcus aureus. Kind of data set: Antibacterial activity against of methicillin-sensitive Staphylococcus aureus ATCC 19636 infected in iv dosed mouse administered 1 hr after infection measured after 48 hrs. It counts as functional.

Sequence of Cytochrome P450 2D6 (P10635 whole entry): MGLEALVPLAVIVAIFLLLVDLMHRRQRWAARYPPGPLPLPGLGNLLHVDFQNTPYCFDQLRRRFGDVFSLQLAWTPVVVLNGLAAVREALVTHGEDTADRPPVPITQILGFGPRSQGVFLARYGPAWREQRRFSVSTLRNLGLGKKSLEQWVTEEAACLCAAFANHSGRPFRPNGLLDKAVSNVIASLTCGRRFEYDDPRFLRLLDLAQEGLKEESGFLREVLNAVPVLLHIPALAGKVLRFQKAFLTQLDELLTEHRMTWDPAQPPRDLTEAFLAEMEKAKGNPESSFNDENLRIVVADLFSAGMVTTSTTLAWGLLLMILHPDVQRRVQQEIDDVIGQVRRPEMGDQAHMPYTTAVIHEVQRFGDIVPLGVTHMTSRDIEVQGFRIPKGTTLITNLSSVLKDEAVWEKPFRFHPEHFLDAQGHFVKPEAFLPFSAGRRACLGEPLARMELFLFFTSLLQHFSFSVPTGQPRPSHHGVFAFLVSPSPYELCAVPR
Sequence of Cytochrome P450 2C19 (P33261 whole entry): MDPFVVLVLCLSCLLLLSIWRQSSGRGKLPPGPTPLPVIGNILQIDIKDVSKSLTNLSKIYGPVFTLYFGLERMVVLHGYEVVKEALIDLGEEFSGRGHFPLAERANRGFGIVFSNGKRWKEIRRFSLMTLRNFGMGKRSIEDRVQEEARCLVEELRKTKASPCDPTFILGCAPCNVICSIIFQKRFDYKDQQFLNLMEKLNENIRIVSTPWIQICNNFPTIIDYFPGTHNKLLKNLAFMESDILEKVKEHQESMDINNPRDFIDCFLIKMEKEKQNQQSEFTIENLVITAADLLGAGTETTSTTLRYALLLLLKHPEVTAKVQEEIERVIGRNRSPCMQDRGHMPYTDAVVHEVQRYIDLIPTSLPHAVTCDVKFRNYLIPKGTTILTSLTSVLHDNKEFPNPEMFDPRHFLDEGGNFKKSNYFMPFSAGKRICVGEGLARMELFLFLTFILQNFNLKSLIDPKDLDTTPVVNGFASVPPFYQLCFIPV
Sequence of Cytochrome P450 2C9 (P11712 whole entry): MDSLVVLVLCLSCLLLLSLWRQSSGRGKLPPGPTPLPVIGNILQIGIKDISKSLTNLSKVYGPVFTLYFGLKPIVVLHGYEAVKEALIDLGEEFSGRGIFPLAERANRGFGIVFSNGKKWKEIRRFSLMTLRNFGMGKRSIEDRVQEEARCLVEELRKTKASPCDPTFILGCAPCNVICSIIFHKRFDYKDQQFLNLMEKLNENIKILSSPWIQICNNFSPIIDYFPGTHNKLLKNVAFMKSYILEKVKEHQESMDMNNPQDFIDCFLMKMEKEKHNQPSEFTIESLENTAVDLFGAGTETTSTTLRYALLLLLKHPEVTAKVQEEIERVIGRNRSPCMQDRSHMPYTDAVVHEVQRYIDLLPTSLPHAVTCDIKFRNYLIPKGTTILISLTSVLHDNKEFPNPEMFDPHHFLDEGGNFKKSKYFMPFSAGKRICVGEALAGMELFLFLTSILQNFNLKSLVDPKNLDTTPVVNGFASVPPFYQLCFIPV

As to `C=C[C@]1(C)C[C@@H](OC(=O)CSc2ccccn2)[C@]2(C)[C@H](C)CC[C@]3(CCC(=O)[C@H]32)[C@@H](C)[C@@H]1O`, the MIC (as a rule, the least concentration at which growth counts as inhibited) in [1] stood at 0.031 µg/mL (≈ 0.0657 µM); in data set [2] it was 0.031 µg/mL (≈ 0.0657 µM); in data set [4], 0.031 µg/mL (≈ 0.0657 µM); in [7] it was 0.063 µg/mL (≈ 0.134 µM); in data set [10] it was 0.031 µg/mL (≈ 0.0657 µM); in [12], 0.031 µg/mL (≈ 0.0657 µM). The 50% inhibitory concentration (IC50) (commonly the concentration needed to halve the response being measured) in data set [3] is greater than 10 µM; in data set [5], greater than 10 µM; in [6], 1.25 µM; in [8] it was greater than 10 µM; in data set [9], greater than 10 µM; in data set [11], 1.36 µM.
Regarding `C=C[C@]1(C)C[C@@H](OC(=O)CSc2cccc(CO)c2)[C@]2(C)[C@H](C)CC[C@]3(CCC(=O)[C@H]32)[C@@H](C)[C@@H]1O`, the minimal inhibitory concentration (MIC) in data set [1], in data set [2], in [4], in data set [7], in data set [10] and in data set [12] was 0.063 µg/mL (≈ 0.126 µM) in each case. For the same compound, the 50% inhibitory concentration (IC50) is 11.1 µM in data set [3]; 15.4 µM in data set [5]; 1.95 µM in [6]; greater than 25 µM in data set [8]; greater than 25 µM in data set [9]; 1.9 µM in [11].
`C=C[C@]1(C)C[C@@H](OC(=O)CSc2cncc(NC(=O)CN)c2)[C@]2(C)[C@H](C)CC[C@]3(CCC(=O)[C@H]32)[C@@H](C)[C@@H]1O`: in data set [13], the AUC(0-t) – broadly, the area under the concentration-time curve up to a stated or last time point – worked out at 41 ng·h/mL. Also, the MIC in [1] was determined as 0.125 µg/mL (≈ 0.23 µM); in [2] it was 0.063 µg/mL (≈ 0.116 µM); in data set [4], 0.063 µg/mL (≈ 0.116 µM); in [7], 0.063 µg/mL (≈ 0.116 µM); in data set [10], 0.125 µg/mL (≈ 0.23 µM); in [12], 0.063 µg/mL (≈ 0.116 µM). Moreover, the mean residence time MRT (as a rule, a mean duration of stay, worked out from the concentration-time curve) in data set [14] was 16.8 min. Besides, the Vd in data set [15] came out at 13.8 L/kg. The clearance (commonly the volume of plasma or blood freed of the substance per unit of time) in [16] is 828 mL/min/kg. For the same compound, in data set [17], the half-life is 20.4 min.
In data set [13], `C=C[C@]1(C)C[C@@H](OC(=O)CSc2cncc(NC(=O)[C@@H](N)CC(C)C)c2)[C@]2(C)[C@H](C)CC[C@]3(CCC(=O)[C@H]32)[C@@H](C)[C@@H]1O` displayed an AUC(0-t) of 69 ng·h/mL. Moreover, the minimal inhibitory concentration (MIC) in data set [1] was determined as 0.063 µg/mL (≈ 0.105 µM); in data set [2] it was 0.063 µg/mL (≈ 0.105 µM); in [4] it was 0.063 µg/mL (≈ 0.105 µM); in [7], 0.031 µg/mL (≈ 0.0517 µM); in [10], 0.063 µg/mL (≈ 0.105 µM); in data set [12] it was 0.063 µg/mL (≈ 0.105 µM). In data set [14], the MRT worked out at 21 min. The Vd in data set [15] is 10.3 L/kg. This compound also gave a clearance in [16] of 488 mL/min/kg. Besides, the half-life in data set [17] was 37.8 min.
For the compound `C=C[C@]1(C)C[C@@H](OC(=O)CSc2cncc(NC(=O)CN3CCCC(O)C3)c2)[C@]2(C)[C@H](C)CC[C@]3(CCC(=O)[C@H]32)[C@@H](C)[C@@H]1O` (stereo partly specified), the AUC(0-t) in [13] turned out to be 522 ng·h/mL. Moreover, the MIC in data set [1], in data set [2], in data set [4], in data set [7], in data set [10] and in data set [12] was 0.063 µg/mL (≈ 0.1 µM) each time. In addition, the half-maximal inhibitory concentration (IC50) in data set [3] was greater than 25 µM; in [5] it was 12.4 µM; in data set [6], 1.08 µM; in data set [8] it was greater than 25 µM; in data set [9], greater than 25 µM; in data set [11], 1.24 µM. The same compound came in with an MRT in [14] of 28.8 min. Further, the Vd in [15] worked out at 1.9 L/kg. This compound gave a clearance in data set [16] of 65 mL/min/kg. Also, the half-life in [17] is 40.2 min.
Take `C=C[C@]1(C)C[C@@H](OC(=O)CS[C@@H]2CC[C@@H](N)C[C@H]2O)[C@]2(C)[C@H](C)CC[C@]3(CCC(=O)[C@H]32)[C@@H](C)[C@@H]1O` [LEFAMULIN]: the AUC(0-t) in data set [13] turned out to be 275 ng·h/mL. Also, in data set [18], the 50% effective dose (ED50) (as a rule, the midpoint of the dose-response relation) was 3.08 mg/kg. Besides, the IC50 is greater than 25 µM in data set [3]; greater than 25 µM in data set [5]; 4.65 µM in data set [6]; greater than 25 µM in data set [8]; greater than 25 µM in data set [9]; 4.43 µM in data set [11]. This compound also registered a mean residence time MRT in data set [14] of 228 min. The Vd in data set [15] amounted to 27.6 L/kg. Further, in data set [16], the clearance was 122 mL/min/kg. In addition, the half-life in data set [17] was 264 min. Moreover, 0.031 µg/mL (≈ 0.0611 µM) was the least that counted as inhibitory in data set [19] (MIC).
